What all share (format): cell-based, Escherichia coli
Test [1] relates to E. coli BW25113-ΔacrB. The test is described as follows: AcrAB-TolC efflux deficiency screen, relative MIC. Conditions: ΔacrB vs wild-type. On the procedure: (§1) Fig. 6 The impact of AcrAB-TolC activity on antibiotic susceptibility. E. coli strains with AcrAB-TolC depletion (BW25113-ΔacrB) and overexpression (BW25113: pUCacrAB) were treated with various antibiotics, and the level of resistance was determined as minimum inhibitory concentration (MIC) relative to a wild-type strain, presented on a logarithmic scale (log2). Each bar represents the mean resistance level (susceptibility, i.e., level of resistance < 0; and resistance, i.e., level of resistance > 0) to antibiotics induced by acrAB overexpression (blue bars; E. coli with a multicopy plasmid of the acrAB genes (pUCacrAB)) and acrB deletion (red bars; mutant E. coli with acrB gene deletion (ΔacrB)) compared to the wild-type. Data are presented as mean values of 3 biological replicates ± SD. […] Detailed information on antibiotic and bacterial strain abbreviations is provided in Supplementary Data 1. Source data are provided as a Source Data file. For information on mode of action groups, refer to Table 1.
(§2) For the efflux deficiency screen, the ΔacrB mutant of E. coli K12 BW25113[86] and its equivalent wild-type control strain with intact gene were utilized. In contrast, BW25113 carrying a multicopy acrAB plasmid (pUCacrAB)[87] and its control strain harboring an empty pUC118 plasmid were used to overexpress the acrAB efflux system. According to established protocols via P1 transduction, the suitable acrB deletion mutant (ΔacrB BW25113) was created, while the pUCacrAB plasmid was kindly provided by Kunihiko Nishino and Akihito Yamaguchi (Osaka University, Osaka, Japan). In a prior study, both strains were employed. Since the copy number of the plasmid carrying the efflux pump is controlled by native promoters, external induction is unnecessary.
(§3) Antibiotic susceptibilities of these strains were evaluated using a modified version of the standard broth dilution method. In 96-well microtiter plates containing fresh MHB medium, or supplemented MS medium in case of SCH79797, ten-step serial dilutions of an antibiotic from a stock solution were made (2 wells per antibiotic concentration per strain). The two wells contained only supplemented media without any antibiotics […]. Strains were incubated overnight at 37 °C with continuous agitation. Additionally, plasmid containing strains were grown in the presence of 100 µg/mL ampicillin. The culture was diluted to yield a cell suspension with 5 ×10^5 cells/mL and then inoculated into the wells of the microtiter plate. To determine the medium’s background OD value, the first column of the 96-well plate contained solely MHB without inoculum. Prior to the measurement, the plates were incubated at 37 °C with continuous shaking at 900 rpm with 3 mm throw. OD600 values were determined in a microplate reader after 18 hours of incubation (Biotek Synergy 2). The minimum inhibitory concentration (MIC) was determined as the lowest concentration of antibiotic at which the OD600 values were less than 0.05 after subtracting the background value. The log2 of the relative MIC was computed using the following equation:2 log2relativeMICpUCacrAB=MICpUCacrAB/MICpUC118 3 log2relativeMICΔacrB=MICΔacrB/MICwt

The subject of test [2] is E. coli ATCC 25922 (SEN) and E. coli NCTC13846 (MDR). The test is described as follows: Frequency-of-resistance (FoR) assay, relative MIC of mutants. Conditions: for MIC: Escherichia coli. On the procedure:
The susceptibility of antibiotics to resistance development was evaluated in two strains of each bacterial species: a multidrug-resistant strain and an antibiotic-sensitive strain of Escherichia coli, Klebsiella pneumoniae, Acinetobacter baumannii, and Pseudomonas aeruginosa. To explore first-step resistance, we previously used a standard protocol for spontaneous frequency-of-resistance analysis (FoR assay) at multiple concentrations of each antibiotic[10],[28],[31]–[33]. […] For all other combinations, approximately 10^10 bacterial cells were exposed to one of each antibiotic on agar plates for two days at concentrations where the given strain is susceptible. We examined resistance levels by contrasting the minimum inhibitory concentration (MICs) of the mutated strains to the original wild-type bacterial strain (i.e., relative MIC).
To estimate the frequency of spontaneous mutations that confer resistance in a microbial population, we conducted a frequency of resistance (FoR) assay following established protocols[10],[31]–[33]. […] Prior to plating, bacteria were grown overnight in MHB medium at 37 °C and 250 RPM, then centrifuged and washed in MHB. All experiments were performed in triplicate, and plates were incubated at 37 °C for 48 hours. Total colony-forming units (CFUs) were determined by plating appropriate dilutions onto antibiotic-free MHB agar. Resistance frequencies were calculated by dividing the number of resistant colonies by the initial viable cell count. From the plates with the highest antibiotic concentration, ten colonies were selected for MIC determination and whole-genome sequencing.
A robotic liquid handling system was used to automatically prepare a 11 to 16-step serial dilution in 384-well microtiter plates (Greiner). A final concentration of 5 × 10^5 bacterial cells per mL were inoculated into each well containing 60 µL MHB medium. Bacterial cultures were incubated at 37 °C with continuous shaking (Infors shaker, 900 rpm with 3 mm throw) for 18 hours (2 replicates from each). Cell growth was monitored by measuring the optical density (OD600 values, using Biotek Synergy microplate reader). MIC was defined as the antibiotic concentration of complete growth inhibition (i.e., OD600 < 0.05). Relative MIC was calculated as follows:1 relativeMIC=MICevolved/MICancestor […]
Supplementary Figure 3. Resistance levels following the frequency of resistance assay across bacterial strains. The level of resistance was measured as the fold change in relative MIC between evolved and ancestral strains. Data are grouped by bacterial strain (A. baumannii (AB), E. coli (EC), K. pneumoniae (KP), and P. aeruginosa (PA)) and categorized as either multidrug-resistant (MDR) or sensitive (SEN). Each data point represents a laboratory evolved line, and boxplots show the median, first and third quartiles, with whiskers indicating the 5th and 95th percentiles. […]
analysis was performed using two-sided Dunn’s post-hoc test with Benjamini-Hochberg correction for multiple comparisons (**/ * indicates p < 0.01/ 0.05). For detailed information on antibiotic and bacterial species, see Supplementary Table 1. For mode of action groups, refer to Table 1. Source data are provided as a Source Data file.

Test [3] deals with E. coli BW25113: pUCacrAB. The test is described as follows: AcrAB-TolC efflux overexpression screen, relative MIC. Conditions: pUCacrAB vs empty pUC118 control. On the procedure:
as §1, §2, §3

The mark [4] stands for this setting: E. coli NCTC 13846 (EC-MDR), evolved line 1, evolved vs ancestor.
Where [5] appears, read: E. coli NCTC 13846 (EC-MDR), evolved line 2, evolved vs ancestor.
Where [6] appears, read: E. coli NCTC 13846 (EC-MDR), evolved line 3, evolved vs ancestor.
[7] abbreviates: Escherichia coli ATCC 25922 (EC-SEN), evolved line 1 versus ancestor.
The mark [8] stands for this setting: Escherichia coli ATCC 25922 (EC-SEN), evolved line 2 versus ancestor.
Where [9] appears, read: Escherichia coli ATCC 25922 (EC-SEN), evolved line 3 versus ancestor.
Setting [10] is: read-out: MIC of evolved line, Escherichia coli ATCC 25922 (EC-SEN), evolved line 1.
Where [11] appears, read: read-out: MIC of evolved line, Escherichia coli ATCC 25922 (EC-SEN), evolved line 2.
[12] abbreviates: read-out: MIC of evolved line, Escherichia coli ATCC 25922 (EC-SEN), evolved line 3.
The mark [13] stands for this setting: E. coli ATCC 25922 (EC-SEN), evolved line 1.
Where [14] appears, read: E. coli ATCC 25922 (EC-SEN), evolved line 1, evolved vs ancestor.
The mark [15] stands for this setting: E. coli ATCC 25922 (EC-SEN), evolved line 2.
The mark [16] stands for this setting: E. coli ATCC 25922 (EC-SEN), evolved line 2, evolved vs ancestor.
Setting [17] is: E. coli ATCC 25922 (EC-SEN), evolved line 3.
Where [18] appears, read: E. coli ATCC 25922 (EC-SEN), evolved line 3, evolved vs ancestor.
Setting [19] is: FoR assay, Escherichia coli ATCC 25922 (EC-SEN), evolved line 1.
The mark [20] stands for this setting: FoR assay, Escherichia coli ATCC 25922 (EC-SEN), evolved line 2.
Where [21] appears, read: FoR assay, Escherichia coli ATCC 25922 (EC-SEN), evolved line 3.

Read-outs that look alike come from different tables or passages of the source. Where a SMILES comes first, the peptide text is derived from it. Bridges are numbered along the chain shown (N, C = ends). [ ]: non-standard residue; d: D form. The star is where a group is joined. X1 = NC[C@@H](CC(=O)*)c1cccc(Cl)c1; Dab = NCC[C@H](N)C(=O)O; Dap = NC[C@H](N)C(=O)O

This is an account of results in publication PMC11845477, “Exploring the principles behind antibiotics with limited resistance” (Nature Communications, 2025).

For `CNC(C)C1CCC(N)C(OC2C(N)CC(N)C(OC3OCC(C)(O)C(NC)C3O)C2O)O1` (stereo not drawn) [Gentamicin], the “Relative MIC (log2)” value in test [1] (replicate 1), in test [1] (replicate 2), in test [1] (replicate 3), in test [3] (replicate 1), in test [3] (replicate 2) and in test [3] (replicate 3) was 0 each time. The “Relative MIC” value in test [2] (setting [4]) is recorded as 8; in test [2] (setting [5]), 4; in test [2] (setting [6]) it was 4; in test [2] (setting [7]), 16; in test [2] (setting [8]), 16; in test [2] (setting [9]), 8. Moreover, the minimal inhibitory concentration (MIC) in test [2] (read-out: MIC of evolved line, E. coli NCTC 13846 (EC-MDR), evolved line 1) came to 8 µg/mL; in test [2] (read-out: MIC of evolved line, E. coli NCTC 13846 (EC-MDR), evolved line 2), 4 µg/mL; in test [2] (read-out: MIC of evolved line, E. coli NCTC 13846 (EC-MDR), evolved line 3) it was 4 µg/mL; in test [2] (setting [10]), 16 µg/mL; in test [2] (setting [11]), 16 µg/mL; in test [2] (setting [12]), 8 µg/mL.
For the compound `O=c1ccc2ncc(=O)n3c2n1C[C@H]3CN1CCC(NCc2cc3c(cn2)OCCC3)CC1` [Gepotidacin], the “Relative MIC (log2)” value is -4 in test [1] (replicate 1); -4 in test [1] (replicate 2); -4 in test [1] (replicate 3); 2 in test [3] (replicate 1); 2 in test [3] (replicate 2); 2 in test [3] (replicate 3). Besides, the “Relative MIC” value in test [2] (setting [4]), in test [2] (setting [5]), in test [2] (setting [6]), in test [2] (setting [7]), in test [2] (setting [8]) and in test [2] (setting [9]) was 1 each time.
Turning to `CN(C)c1cc(CNCC(C)(C)C)c(O)c2c1C[C@H]1C[C@H]3[C@H](N(C)C)C(O)=C(C(N)=O)C(=O)[C@@]3(O)C(O)=C1C2=O` [Omadacycline], the “Relative MIC (log2)” value in test [1] (replicate 1) is -2.34; in test [1] (replicate 2), -2.34; in test [1] (replicate 3), -2.34; in test [3] (replicate 1) it was 0.585; in test [3] (replicate 2) it was 0.585; in test [3] (replicate 3) it was 0.585. Moreover, the “Relative MIC” value in test [2] (setting [7]), in test [2] (setting [8]) and in test [2] (setting [9]) was 2 throughout. The MIC in test [2] (setting [10]), in test [2] (setting [11]) and in test [2] (setting [12]) was 4 µg/mL throughout.
`CC(C)c1ccc(Cn2ccc3c4c(N)nc(NC5CC5)nc4ccc32)cc1` [SCH79797]: the “Relative MIC (log2)” value was -1 in test [1] (replicate 1); -1 in test [1] (replicate 2); -1 in test [1] (replicate 3); 1 in test [3] (replicate 1); 1 in test [3] (replicate 2); 1 in test [3] (replicate 3). Also, the MIC of evolved line in test [2] (setting [13]), in test [2] (setting [15]) and in test [2] (setting [17]) was 8 µg/mL each time. Further, the “Relative MIC” value in test [2] (setting [14]), in test [2] (setting [16]), in test [2] (setting [18]), in test [2] (setting [19]), in test [2] (setting [20]) and in test [2] (setting [21]) was 2 throughout.
Take `CC(C)C[C@@H]1NC(=O)[C@@H](Cc2ccccc2)NC(=O)[C@H](CCN)NC(=O)[C@@H](NC(=O)[C@H](CN)NC(=O)[C@@H](NC(=O)C[C@H](CN)c2cccc(Cl)c2)[C@@H](C)O)CCNC(=O)[C@H]([C@@H](C)O)NC(=O)[C@H](CCN)NC(=O)[C@H](CCN)NC1=O` [SPR206] (X1-T[Dap][Dab][Dab][dF]L[Dab][Dab]T; lactam 3-C (inferred); N-terminus assumed): the “Relative MIC (log2)” value in test [1] (replicate 1), in test [1] (replicate 2), in test [1] (replicate 3), in test [3] (replicate 1), in test [3] (replicate 2) and in test [3] (replicate 3) was 0 in each case. Moreover, the MIC of evolved line in test [2] (setting [13]) came out at 32 µg/mL; in test [2] (setting [15]), 32 µg/mL; in test [2] (setting [17]), 32 µg/mL; in test [2] (E. coli NCTC 13846 (EC-MDR), evolved line 1), 64 µg/mL; in test [2] (E. coli NCTC 13846 (EC-MDR), evolved line 2), 64 µg/mL; in test [2] (E. coli NCTC 13846 (EC-MDR), evolved line 3), 64 µg/mL. In addition, the “Relative MIC” value in test [2] (setting [14]) turned out to be 128; in test [2] (setting [16]), 128; in test [2] (setting [18]), 128; in test [2] (setting [4]), 16; in test [2] (setting [5]), 16; in test [2] (setting [6]), 16. Further, the “Relative MIC” value in test [2] (setting [19]) stood at 128; in test [2] (setting [20]) it was 128; in test [2] (setting [21]) it was 128; in test [2] (FoR assay, Escherichia coli NCTC 13846 (EC-MDR), evolved line 1), 16; in test [2] (FoR assay, Escherichia coli NCTC 13846 (EC-MDR), evolved line 2), 16; in test [2] (FoR assay, Escherichia coli NCTC 13846 (EC-MDR), evolved line 3), 16.
